In US6989158B1, “Gold-containing chemotherapeutic agents” (The Curators of the University of Missouri, priority 1999, dated 2006):

Assays:
[1] = Deaths of tumor bearing mice at larger doses; format: in vivo; conditions: doses significantly larger than in the table (20–25 μg/kg)
[2] = Side effects in mice models; format: in vivo; conditions: preliminary findings
HCT-15 cells = assay: Histogram (cell cycle) studies; format: cell-based; conditions: 200 or 40 μg/ml, two days incubation
Description: Histogram studies were carried out using HCT-15 cells. In the enclosed figure that summarize histogram results the cells are numbered as follows: HCT-80 is the control; HCT-81 refers to a sample with 200 μg/ml of the gold compound; HCT-82 refers to a sample with 40 μg/ml of gold compound.
HCT-15 cells were incubated in 5% CO2 incubator for two days. Then the cells were harvested and analyzed using fluorescent techniques. […] This finding is in sharp contrast to he cytotoxic side effects of cisplatin which is known to cause disassociation of many phases. Additionally, most agents which are cytotoxic, block S or M+G2 phase after culturing for two days. The mode of cell suppression via G1 phase elongation, as observed for the gold compound, therefore functions differently.

Meth/A cells = assay: In vivo study, survival of Meth/A tumor bearing mice; parameters: species or system Balb/C mice
[3] = tested on: cells derived from human colon carcinoma; assay: in vitro tumor growth suppression, cells derived from human colon carcinoma; format: cell-based; conditions: specific human cancer cell lines
Text: When the non-radioactive analogue of the gold complex of THP [(Au(THP)4)]

peritoneal cancer cells = conditions: in vivo; cited from earlier work
[4] = in vivo; cited from earlier work
solid tumor models = conditions: in vivo; cited from earlier work
[5] = tested on: interperitoneal P388 leukemia; conditions: in vivo; cited from earlier work

OCP(CO)CO.OCP(CO)CO.OCP(CO)CO.OCP(CO)CO.[Au+].[Cl-] [[Au(THP)4]Cl]
deaths of tumor bearing mice [1]: did not result in deaths of tumor bearing mice
toxic side effects [2]: no toxic cardiovascular or naphrotoxic side effects
effect on G1 phase of the cell cycle (HCT-15 cells): elongates G1 phase
survival of tumor bearing mice (Meth/A cells): remarkable survival of tumor bearing mice
tumor cell suppression [3]: remarkable activity in suppressing tumor growth

N.N.[Cl][Pt][Cl] [Cisplatin, cisplatin]
deaths of tumor bearing mice [1]: resulted in the death of animals

[Au+].[Cl-].c1ccc(P(CCP(c2ccccc2)c2ccccc2)c2ccccc2)cc1.c1ccc(P(CCP(c2ccccc2)c2ccccc2)c2ccccc2)cc1 [[Au(dppe)2]Cl]
activity against peritoneal cancer cells (peritoneal cancer cells): marked activity
toxicity in preclinical toxicology studies [4]: cardiotoxicity
activity against solid tumor models (solid tumor models): only slightly active

CC[PH](CC)(CC)[Au][S][C@@H]1O[C@H](COC(C)=O)[C@@H](OC(C)=O)[C@H](OC(C)=O)[C@H]1OC(C)=O [Auranofin, (2,3,4,6-tetra-O-aceytl-1-thio-β-D-glucopyranosato-S)-(triethylphosphine) gold(I)]
activity against interperitoneal P388 leukemia [5]: active
